These compounds were tested against KRAS G12C and cRAF (Ras-binding domain) interaction (Homo sapiens (Human), UniProt P01116, C118S/C51S/C80L/G12C) (assay: Inhibition of KRAS G12C and cRAF binding (AlphaScreen)). Conditions: GMPPNP-loaded KRAS G12C, 19-20 hours incubation with compound; read-out: IC50 (Inhibition of KRAS G12C and cRAF Binding).
KRAS G12C and cRAF (Ras-binding domain) interaction, sequence (P01116 other isoform, or with tags, fused parts or gaps G12C/C51S/C80L/C118S): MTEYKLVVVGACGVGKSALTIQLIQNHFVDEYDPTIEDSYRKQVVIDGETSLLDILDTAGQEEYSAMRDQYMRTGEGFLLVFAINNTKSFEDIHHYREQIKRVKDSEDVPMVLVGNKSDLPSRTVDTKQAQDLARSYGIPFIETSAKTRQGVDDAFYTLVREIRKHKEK
Summary of the method: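 IC50 values come from 4-parameter nonlinear regression of AlphaScreen signal (680 nm excitation, 570 nm emission). Compound plates sat 19-20 h at room temperature before RBD and donor/acceptor beads were added in Hepes pH 7.4 buffer with 150 mM NaCl, 5 mM MgCl2, 2% DMSO for 60-90 min; biotin-AviTag-GST replaced RBD to flag assay-technology interferers.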
C=CC(=O)N1CC[C@@H](N(C)c2nc(OC[C@@]34CCCN3C[C@H](O)C4)nc3c(F)c(-c4cccc5cccc(Cl)c45)ncc23)C1 [Example 137, 1-((R)-3-((7-(8-chloronaphthalen-1-yl)-8-fluoro-2-(((2R,7aS)-2-hydroxytetrahydro-1H-pyrrolizin-7a(5H)-yl)methoxy)pyrido[4,3-d]pyrimidin-4-yl)(methyl)amino)pyrrolidin-1-yl)prop-2-en-1-one] showed an IC50 of 0.01 to 0.1 µM. C#Cc1c(F)ccc2cccc(-c3ncc4c(N(C)[C@@H]5CCN(C(=O)/C=C/CN6C[C@@H]7C[C@H]6CO7)C5)nc(OC[C@@]56CCCN5C[C@H](F)C6)nc4c3F)c12 [Example 291, (E)-4-((1S,4S)-2-oxa-5-azabicyclo[2.2.1]heptan-5-yl)-1-((R)-3-((7-(8-ethynyl-7-fluoronaphthalen-1-yl)-8-fluoro-2-(((2R,7aS)-2-fluorotetrahydro-1H-pyrrolizin-7a(5H)-yl)methoxy)pyrido[4,3-d]pyrimidin-4-yl)(methyl)amino)pyrrolidin-1-yl)but-2-en-1-one] gave an IC50 of less than 0.01 µM. C=CC(=O)N1CC[C@@H](N(C)c2nc(OC[C@@]34CCCN3C[C@H](F)C4)nc3c(F)c(-c4cccc5cc(Cl)cc(Cl)c45)ncc23)C1 [Example 263, 1-((R)-3-((7-(6,8-dichloronaphthalen-1-yl)-8-fluoro-2-(((2R,7aS)-2-fluorotetrahydro-1H-pyrrolizin-7a(5H)-yl)methoxy)pyrido[4,3-d]pyrimidin-4-yl)(methyl)amino)pyrrolidin-1-yl)prop-2-en-1-one] showed an IC50 greater than 0.5 µM. CN(c1nc(OC[C@@]23CCCN2C[C@H](F)C3)nc2c(F)c(-c3cccc4cccc(Cl)c34)ncc12)[C@@H]1CCN(C(=O)/C=C/c2cn(C)cn2)C1 [Example 135, (E)-1-((R)-3-((7-(8-chloronaphthalen-1-yl)-8-fluoro-2-(((2R,7aS)-2-fluorohexahydro-1H-pyrrolizin-7a-yl)methoxy)pyrido[4,3-d]pyrimidin-4-yl)(methyl)amino)pyrrolidin-1-yl)-3-(1-methyl-1H-imidazol-4-yl)prop-2-en-1-one] was tested, and the IC50 was 0.1 to 0.5 µM. In the case of CN(c1nc(OC[C@@]23CCCN2C[C@H](F)C3)nc2c(F)c(-c3cccc4cccc(Cl)c34)ncc12)[C@@H]1CCN(C(=O)C#CC2CNCCO2)C1 (stereo partly drawn) [Example 64, 1-((R)-3-((7-(8-chloronaphthalen-1-yl)-8-fluoro-2-(((2R,7aS)-2-fluorohexahydro-1H-pyrrolizin-7a-yl)methoxy)pyrido[4,3-d]pyrimidin-4-yl)(methyl)amino)pyrrolidin-1-yl)-3-(morpholin-2-yl)prop-2-yn-1-one], the IC50 is reported as less than 0.01 µM. Work on Cc1ncc(F)c(/C=C/C(=O)N2CC[C@@H](N(C)c3nc(OCC45CCCN4CCC5)nc4c(F)c(-c5cccc6ccc(F)c(Cl)c56)ncc34)C2)n1 [Example 244, (R,E)-1-(3-((7-(8-chloro-7-fluoronaphthalen-1-yl)-8-fluoro-2-((tetrahydro-1H-pyrrolizin-7a(5H)-yl)methoxy)pyrido[4,3-d]pyrimidin-4-yl)(methyl)amino)pyrrolidin-1-yl)-3-(5-fluoro-2-methylpyrimidin-4-yl)prop-2-en-1-one] yielded an IC50 of 0.1 to 0.5 µM. Work on Cc1nccc(/C=C/C(=O)N2CC(CN(C)c3nc(OC[C@@]45CCCN4C[C@H](F)C5)nc4c3CCN(c3cccc5cccc(Cl)c35)C4)C2)n1 [Example 69, (E)-1-(3-(((7-(8-chloronaphthalen-1-yl)-2-(((2R,7aS)-2-fluorohexahydro-1H-pyrrolizin-7a-yl)methoxy)-5,6,7,8-tetrahydropyrido[3,4-d]pyrimidin-4-yl)(methyl)amino)methyl)azetidin-1-yl)-3-(2-methylpyrimidin-4-yl)prop-2-en-1-one] yielded an IC50 of 0.1 to 0.5 µM. CN(c1nc(OC[C@@]23CCCN2C[C@H](F)C3)nc2c(F)c(-c3cccc4cccc(Cl)c34)ncc12)[C@@H]1CCN(C(=O)/C=C/c2nc(C3COC3)no2)C1 [Example 159, (E)-1-((R)-3-((7-(8-chloronaphthalen-1-yl)-8-fluoro-2-(((2R,7aS)-2-fluorohexahydro-1H-pyrrolizin-7a-yl)methoxy)pyrido[4,3-d]pyrimidin-4-yl)(methyl)amino)pyrrolidin-1-yl)-3-(3-(oxetan-3-yl)-1,2,4-oxadiazol-5-yl)prop-2-en-1-one] showed an IC50 of less than 0.01 µM. Compound CN(c1nc(OC[C@@]23CCCN2C[C@H](F)C3)nc2c(F)c(-c3cccc4cccc(Cl)c34)ncc12)[C@@H]1CCN(C(=O)C#CCN2CCOCC2)C1 [Example 92, 1-((R)-3-((7-(8-chloronaphthalen-1-yl)-8-fluoro-2-(((2R,7aS)-2-fluorohexahydro-1H-pyrrolizin-7a-yl)methoxy)pyrido[4,3-d]pyrimidin-4-yl)(methyl)amino)pyrrolidin-1-yl)-4-morpholinobut-2-yn-1-one] has an IC50 greater than 0.5 µM. C#Cc1c(F)ccc2cccc(-c3ncc4c(N(C)[C@@H]5CCN(C(=O)/C=C/CN6CC[C@@H](OC)C6)C5)nc(OC[C@@]56CCCN5C[C@H](F)C6)nc4c3F)c12 [Example 287, (E)-1-((R)-3-((7-(8-ethynyl-7-fluoronaphthalen-1-yl)-8-fluoro-2-(((2R,7aS)-2-fluorotetrahydro-1H-pyrrolizin-7a(5H)-yl)methoxy)pyrido[4,3-d]pyrimidin-4-yl)(methyl)amino)pyrrolidin-1-yl)-4-((R)-3-methoxypyrrolidin-1-yl)but-2-en-1-one] showed an IC50 of 0.01 to 0.1 µM. With C=CC(=O)N1CC[C@@H](N(C)c2nc(OC[C@@]34CCCN3C[C@H](F)C4)nc3c(F)c(-c4cccc5cccc(C(F)F)c45)ncc23)C1 [Example 307, 1-((R)-3-((7-(8-(difluoromethyl)naphthalen-1-yl)-8-fluoro-2-(((2R,7aS)-2-fluorohexahydro-1H-pyrrolizin-7a-yl)methoxy)pyrido[4,3-d]pyrimidin-4-yl)(methyl)amino)pyrrolidin-1-yl)prop-2-en-1-one] the IC50 was greater than 0.5 µM. Cc1nccc(/C=C/C(=O)N2C[C@H](F)[C@@H](N(C)c3nc(OC[C@@]45CCCN4C[C@H](F)C5)nc4c(F)c(-c5cccc6cccc(Cl)c56)ncc34)C2)n1 [Example 216, (E)-1-((3S,4S)-3-((7-(8-chloronaphthalen-1-yl)-8-fluoro-2-(((2R,7aS)-2-fluorotetrahydro-1H-pyrrolizin-7a(5H)-yl)methoxy)pyrido[4,3-d]pyrimidin-4-yl)(methyl)amino)-4-fluoropyrrolidin-1-yl)-3-(2-methylpyrimidin-4-yl)prop-2-en-1-one] showed an IC50 of 0.1 to 0.5 µM. For C=CC(=O)N1C[C@H](N(C)c2nc(OCC34CCCN3CCC4)nc3c(F)c(-c4cccc5cccc(Cl)c45)ncc23)CC1C#N (stereo partly drawn) [Example 118, (4R)-1-acryloyl-4-((7-(8-chloronaphthalen-1-yl)-8-fluoro-2-((hexahydro-1H-pyrrolizin-7a-yl)methoxy)pyrido[4,3-d]pyrimidin-4-yl)(methyl)amino)pyrrolidine-2-carbonitrile], the IC50 was 0.01 to 0.1 µM. Compound C#Cc1c(F)ccc2cccc(-c3ncc4c(N(C)[C@@H]5CCN(C(=O)/C=C/CN(C)C)C5)nc(OC[C@@]56CCCN5C[C@H](F)C6)nc4c3F)c12 [Example 201, (E)-4-(dimethylamino)-1-((R)-3-((7-(8-ethynyl-7-fluoronaphthalen-1-yl)-8-fluoro-2-(((2R,7aS)-2-fluorohexahydro-1H-pyrrolizin-7a-yl)methoxy)pyrido[4,3-d]pyrimidin-4-yl)(methyl)amino)pyrrolidin-1-yl)but-2-en-1-one] has an IC50 of less than 0.01 µM.

Same assay, conditions: additional exemplary compounds; KRAS G12C and cRAF binding; read-out: RAF1 RBD IC50
For C=CC(=O)N1CC[C@H](O)[C@@H](N(C)c2nc(OC[C@@]34CCCN3C[C@H](F)C4)nc3c(F)c(-c4cccc5cccc(Cl)c45)ncc23)C1, the IC50 was 0.01 to 0.1 µM. In the case of CN1CCC[C@H]1COc1nc(N(C)[C@@H]2CCN(C(=O)/C=C/CN3CC(F)C3)C2)c2cnc(-c3cccc4cccc(Cl)c34)c(F)c2n1, the IC50 is reported as greater than 0.5 µM. Work on C=CC(=O)N1C[C@H](N(C)c2nc(OC[C@@]34CCCN3C[C@H](F)C4)nc3c(F)c(-c4cccc5cccc(Cl)c45)ncc23)CC1C#N (some centres unmarked) yielded an IC50 of 0.01 to 0.1 µM. Work on CN(CC1CN(C#N)C1)c1nc(OC[C@@H]2CCCN2C)nc2c(F)c(-c3cccc4cccc(Cl)c34)ncc12 yielded an IC50 greater than 0.5 µM. With C=CC(=O)N1CC[C@H](Nc2nc(OC[C@@]34CCCN3C[C@H](F)C4)nc3c2CCN(c2cccc4cccc(Cl)c24)C3)C1 the IC50 was greater than 0.5 µM. C=CC(=O)N1CCC(N(c2nc(OCC34CCCN3CCC4)nc3c2CCN(c2cccc4cccc(Cl)c24)C3)C2CC2)C1 (centres unmarked) showed an IC50 greater than 0.5 µM. C=CC(=O)N1CC[C@H]2[C@@H]1CCN2c1nc(OC[C@@]23CCCN2C[C@H](F)C3)nc2c1CCN(c1cccc3cccc(Cl)c13)C2 was tested, and the IC50 was greater than 0.5 µM. Work on C=CC(=O)N1CC[C@@H](N(C)c2nc(OC[C@]34CCCN3C[C@@H](F)C4)nc3c(F)c(-c4cccc5cccc(Cl)c45)ncc23)C1 yielded an IC50 of 0.1 to 0.5 µM. Work on CN(CCS(=O)(=O)/C=C/CN1CC(F)C1)c1nc(OCC23CCCN2CCC3)nc2c1CCN(c1cccc3cccc(Cl)c13)C2 yielded an IC50 of 0.1 to 0.5 µM. Compound C=CC(=O)N1CCC1CN(C)c1nc(OC[C@@]23CCCN2C[C@H](F)C3)nc2c(F)c(-c3cccc4cccc(Cl)c34)ncc12 (some centres unmarked) has an IC50 greater than 0.5 µM. In the case of C=CC(=O)N1CC(CN(C)c2nc(OC[C@]34CCCN3C[C@H](F)C4)nc3c(F)c(-c4cccc5cccc(Cl)c45)ncc23)C1, the IC50 is reported as greater than 0.5 µM. For C=CC(=O)CCCN(C)c1nc(OC[C@@H]2CCCN2C)nc2c1CCN(c1cccc3ccccc13)C2, the IC50 was greater than 0.5 µM. CN1CCC1/C=C/C(=O)N1CCCN(c2nc(OC[C@@]34CCCN3C[C@H](F)C4)nc3c(F)c(-c4cccc5cccc(Cl)c45)ncc23)CC1 (some centres unmarked) gave an IC50 greater than 0.5 µM. In the case of C=CC(=O)N1CC[C@@H](N(C)c2nc(OCC34CCCN3CCC4)nc3c(F)c(-c4cccc5cccc(Cl)c45)ncc23)C1, the IC50 is reported as 0.1 to 0.5 µM. C=CC(=O)N1C[C@@H](N(C)c2nc(OCC34CCCN3CCC4)nc3c(F)c(-c4cccc5cccc(Cl)c45)ncc23)C[C@@H]1CC#N gave an IC50 greater than 0.5 µM.

From patent US20250019387A1 (Frontier Medicines Corporation, priority 0001, published 2025)
